Columns and labels:
PPARδ = target: T1, PPARδ (Mus musculus, UniProt P35396); details: mice, cited from earlier work
T1 construct: host or cells: mice (skeletal muscle), in vivo
T1 sequence (P35396 1-440): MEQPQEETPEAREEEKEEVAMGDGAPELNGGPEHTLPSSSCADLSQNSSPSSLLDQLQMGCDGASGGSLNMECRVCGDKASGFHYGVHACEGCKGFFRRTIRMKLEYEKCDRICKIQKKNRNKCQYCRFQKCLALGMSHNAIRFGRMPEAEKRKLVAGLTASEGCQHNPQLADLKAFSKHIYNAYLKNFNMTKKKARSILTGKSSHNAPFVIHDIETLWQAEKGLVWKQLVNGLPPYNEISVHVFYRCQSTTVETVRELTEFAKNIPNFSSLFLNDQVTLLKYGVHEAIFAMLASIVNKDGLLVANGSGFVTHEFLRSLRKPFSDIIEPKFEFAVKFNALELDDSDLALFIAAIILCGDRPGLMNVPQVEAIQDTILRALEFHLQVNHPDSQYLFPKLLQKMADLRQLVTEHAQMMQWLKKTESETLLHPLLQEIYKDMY

PPARα = target: T2, PPARα (Homo sapiens, UniProt Q07869); assay: PPAR agonist activity in human cell lines expressing PPAR isotypes; assay type: cell-based
T2 sequence (Q07869 1-468): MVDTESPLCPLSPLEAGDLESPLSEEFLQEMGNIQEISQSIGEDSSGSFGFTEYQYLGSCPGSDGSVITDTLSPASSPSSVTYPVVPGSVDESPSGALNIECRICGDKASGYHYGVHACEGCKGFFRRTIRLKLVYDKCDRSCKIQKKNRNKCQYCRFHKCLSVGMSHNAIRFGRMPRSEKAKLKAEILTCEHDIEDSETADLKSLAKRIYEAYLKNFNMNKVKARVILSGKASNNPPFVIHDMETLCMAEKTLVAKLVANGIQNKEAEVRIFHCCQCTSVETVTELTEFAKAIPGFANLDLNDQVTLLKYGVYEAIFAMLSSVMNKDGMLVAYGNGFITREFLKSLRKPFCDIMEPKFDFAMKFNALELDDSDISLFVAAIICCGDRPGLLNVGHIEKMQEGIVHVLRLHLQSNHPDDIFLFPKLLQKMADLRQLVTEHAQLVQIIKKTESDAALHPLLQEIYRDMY
Procedure: (§1) Compound I is a PPARδ agonist that is useful in the methods of treatment described herein. In human cell lines expressing all three peroxisome proliferator-activated receptor (PPAR) isotypes, Compound I is a potent (EC50<100 nM) and selective human PPARδ agonist, with minor activity on PPARα (EC50>10 μM) and PPARγ (EC50>10 μM).

PPARγ = target: T3, PPARγ (Homo sapiens, UniProt P37231); assay: as above; assay type: cell-based
T3 sequence (P37231 1-505): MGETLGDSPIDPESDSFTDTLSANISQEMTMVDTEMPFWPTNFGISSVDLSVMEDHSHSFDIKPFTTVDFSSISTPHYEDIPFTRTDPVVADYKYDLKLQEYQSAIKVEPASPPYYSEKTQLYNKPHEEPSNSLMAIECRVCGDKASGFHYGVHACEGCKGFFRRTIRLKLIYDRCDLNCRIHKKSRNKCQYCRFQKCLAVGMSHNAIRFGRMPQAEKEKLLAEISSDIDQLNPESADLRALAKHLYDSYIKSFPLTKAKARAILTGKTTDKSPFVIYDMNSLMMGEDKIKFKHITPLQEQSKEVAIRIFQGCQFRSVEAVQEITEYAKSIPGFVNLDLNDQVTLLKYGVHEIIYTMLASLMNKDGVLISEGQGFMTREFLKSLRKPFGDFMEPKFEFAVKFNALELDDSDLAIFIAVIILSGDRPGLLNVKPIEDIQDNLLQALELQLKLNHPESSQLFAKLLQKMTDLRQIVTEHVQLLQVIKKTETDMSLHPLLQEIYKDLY
Procedure: as §1

human PPARδ = target: T4, human PPARδ (Homo sapiens, UniProt Q03181); assay: as above; assay type: cell-based
T4 sequence (Q03181 1-441): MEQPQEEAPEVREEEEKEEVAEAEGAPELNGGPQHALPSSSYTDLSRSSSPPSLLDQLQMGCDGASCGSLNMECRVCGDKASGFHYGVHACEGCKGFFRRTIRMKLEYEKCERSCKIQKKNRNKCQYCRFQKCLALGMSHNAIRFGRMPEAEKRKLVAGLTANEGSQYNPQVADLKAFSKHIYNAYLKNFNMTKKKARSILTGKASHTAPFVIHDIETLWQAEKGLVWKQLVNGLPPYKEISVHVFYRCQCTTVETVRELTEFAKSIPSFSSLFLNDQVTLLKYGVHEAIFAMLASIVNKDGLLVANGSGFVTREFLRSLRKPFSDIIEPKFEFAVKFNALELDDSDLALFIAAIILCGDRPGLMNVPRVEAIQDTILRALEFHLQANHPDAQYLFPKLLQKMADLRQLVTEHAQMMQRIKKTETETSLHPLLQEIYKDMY
Procedure: as §1

RXR = assay: Activation of human cells expressing nuclear receptors; assay type: cell-based
FXR = target: T5, FXR (Homo sapiens, UniProt Q96RI1); assay: as above; assay type: cell-based
T5 sequence (Q96RI1 1-486): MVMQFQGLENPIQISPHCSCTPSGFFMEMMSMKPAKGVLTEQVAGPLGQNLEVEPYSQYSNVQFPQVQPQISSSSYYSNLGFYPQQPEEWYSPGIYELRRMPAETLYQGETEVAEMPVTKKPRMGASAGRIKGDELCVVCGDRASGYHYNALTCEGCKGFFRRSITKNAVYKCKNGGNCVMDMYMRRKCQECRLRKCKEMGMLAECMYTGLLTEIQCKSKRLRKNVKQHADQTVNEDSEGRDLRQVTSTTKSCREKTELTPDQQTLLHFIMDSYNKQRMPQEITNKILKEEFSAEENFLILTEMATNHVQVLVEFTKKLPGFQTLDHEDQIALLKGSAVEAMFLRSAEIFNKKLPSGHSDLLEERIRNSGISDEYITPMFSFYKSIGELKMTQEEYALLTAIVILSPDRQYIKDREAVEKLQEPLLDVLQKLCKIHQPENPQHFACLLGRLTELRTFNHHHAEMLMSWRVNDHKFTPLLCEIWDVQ

LXRα = target: T6, LXRα (Homo sapiens, UniProt Q13133); assay: as above; assay type: cell-based
T6 sequence (Q13133 1-447): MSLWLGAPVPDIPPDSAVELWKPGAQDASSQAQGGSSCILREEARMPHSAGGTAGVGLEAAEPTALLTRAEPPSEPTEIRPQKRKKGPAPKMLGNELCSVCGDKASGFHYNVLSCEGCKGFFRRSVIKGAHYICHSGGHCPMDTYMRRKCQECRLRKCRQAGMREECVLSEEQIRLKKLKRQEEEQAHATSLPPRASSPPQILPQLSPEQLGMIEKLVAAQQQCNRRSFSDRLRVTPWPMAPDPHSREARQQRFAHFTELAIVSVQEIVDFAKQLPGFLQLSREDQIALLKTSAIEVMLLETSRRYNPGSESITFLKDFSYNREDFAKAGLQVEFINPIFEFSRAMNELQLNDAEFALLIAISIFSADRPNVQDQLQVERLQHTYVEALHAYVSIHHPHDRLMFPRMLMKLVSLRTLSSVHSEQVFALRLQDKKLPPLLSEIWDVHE

LXRβ = target: T7, LXRβ (Homo sapiens, UniProt P55055); assay: as above; assay type: cell-based
T7 sequence (P55055 1-460): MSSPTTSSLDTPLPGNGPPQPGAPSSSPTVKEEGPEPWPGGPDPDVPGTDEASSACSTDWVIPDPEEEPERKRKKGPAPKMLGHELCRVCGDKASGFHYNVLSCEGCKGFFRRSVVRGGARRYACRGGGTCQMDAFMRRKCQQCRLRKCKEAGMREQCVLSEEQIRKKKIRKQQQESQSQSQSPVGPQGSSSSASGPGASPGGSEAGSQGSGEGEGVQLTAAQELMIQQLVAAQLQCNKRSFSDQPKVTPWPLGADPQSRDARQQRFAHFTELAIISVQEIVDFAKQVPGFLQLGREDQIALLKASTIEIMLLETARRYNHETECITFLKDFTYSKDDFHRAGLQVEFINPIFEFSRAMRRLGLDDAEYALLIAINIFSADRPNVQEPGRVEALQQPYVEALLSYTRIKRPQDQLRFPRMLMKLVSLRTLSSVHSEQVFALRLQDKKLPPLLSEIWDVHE

[1] = system: PPARδ regulated genes (CPT1b, PGC-1α); assay: In vivo expression of PPARδ regulated genes in mice muscle
[2] = system: Angiopoietin-like 4 (ANGPTL4); assay: In vivo expression of PPAR regulated target gene in rat muscle
[3] = Clinical studies, safety and tolerability; assay type: in vivo, human
[4] = in combination with exercise, 4 weeks
[5] = human cell lines expressing all three PPAR isotypes

selectivity for PPARδ over PPARα (PPARα) [fold] | type of agonism on PPARα (PPARα) | EC50 (PPARα; [5]) [µM] | selectivity for PPARδ over PPARγ (PPARγ) [fold] | type of agonism on PPARγ (PPARγ) | EC50 (PPARγ; [5]) [µM] | type of agonism on PPARδ (human PPARδ) | EC50 (human PPARδ; [5]) [µM] | activation of human cells expressing FXR (FXR) | activation of human cells expressing LXRα (LXRα) | activation of human cells expressing LXRβ (LXRβ) | SMILES | energy substrate usage (PPARδ; 8 weeks) | muscle fibers, mitochondrial biogenesis (PPARδ; [4]) | physical performance (PPARδ; [4]) | activation of human cells expressing RXR (RXR) | expression of PPARδ regulated genes CPT1b (beta-oxidation of long chain fatty acids) and PGC-1α (mitochondrial biogenesis) [1] | expression of ANGPTL4 [2] | incidence of adverse events (AEs) versus placebo [3] | serious adverse events (SAEs) [3] | safety and tolerability ([3]; Compound I or a pharmaceutically acceptable salt, solvate or hydrate)
 |  |  |  |  |  |  |  |  |  |  | Cc1cc(SCc2sc(-c3ccc(C(F)(F)F)cc3)nc2C)ccc1OCC(=O)O [GW1516] | clear shift in energy substrate usage from glucose to fatty acid oxidation | synergistically induced fatigue-resistant oxidative muscle fibers and mitochondrial biogenesis | enhanced physical performance |  |  |  |  |  | 
100 | only partial agonist activity | > 10 | 400 | only partial agonist activity | > 10 | full PPARδ agonist | < 0.1 | did not result in activation | did not result in activation | did not result in activation | Cc1cc(OC/C=C(/c2ccc(F)cc2)c2ccc(C#CCN3CCOCC3)cc2)ccc1OCC(=O)O [Compound I, (E)-2-(4-((3-(4-fluorophenyl)-3-(4-(3-morpholinoprop-1-yn-1-yl)phenyl)allyl)oxy)-2-methylphenoxy)acetic acid] |  |  |  | did not result in activation | altered the expression patterns | increased the expression | similar | No serious adverse events (SAEs) were reported | safe and well tolerated

From patent US20230416210A1, “METHODS OF MAKING A PPAR-DELTA AGONIST” (Reneo Pharmaceuticals, Inc., priority 2020, published 2023)
